Data as given in patent publication US10550166B2, “Immunogenic peptides of the cyclin B1 tumor antigen” (Commissariat a l'Energie Atomique et aux Energies …, priority 2013, dated 2020).

Tested on: CD4+ T lymphocytes
Experiment: induction of peptide-specific CD4+ T lymphocyte lines with peptide-loaded dendritic cells, Elispot
Assay type: cell-based, human
In short: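 PBMC-derived autologous DCs (IL-4/GM-CSF, LPS-matured) loaded with CCNB1 (1.2 μM) or peptide pools (10 μg/ml) stimulated CD4+ T cells weekly with IL-6/IL-12, then IL-2/IL-7. IFN-γ Elispot after 16 h at 37 °C; lines specific if spots ≥2× no-antigen well and difference >25; donor precursor frequency estimated by Poisson law.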

Question: For “MALRVTRNSKINAEN (synthetic peptide CCNB1 1-15) [Peptide 1-15]”, which “Average strength (%)” value (CD4+ T response, 13 healthy donors) is on record?
Answer: Its value is 2.8%.

Question: And the “Number of specific responses” value (Donor 14, HLA-DRB1 typing 07:01/13:01)?
Answer: Its value is 1.

Question: And the “Number of specific responses” value (Donor 22, HLA-DRB1 typing 01:01/09:01)?
Answer: Its value is 1.

Question: What about the “Number of specific responses” value (Donor 23, HLA-DRB1 typing 04:01/13:01) of the same sequence?
Answer: The value was 1.

Question: And the “Number of specific responses” value (Donor 26, HLA-DRB1 typing 11:04/15:01)?
Answer: Its value is 4.

Question: What about the “Number of specific responses” value (Donor 30, HLA-DRB1 typing 07:01/11:01) of the same sequence?
Answer: Its value is 1.

Question: What about the “Number of specific responses” value (Donor 31, HLA-DRB1 typing 13:01/16:01) of the same sequence?
Answer: The value was 1.

Question: And the “Number of specific responses” value (Donor 56, HLA-DRB1 typing 07:01/11:01)?
Answer: The value was 3.

Question: And the “Number of specific responses” value (Donor 876, HLA-DRB1 typing 11:01/11:04)?
Answer: The value was 3.

Question: What about the “Number of specific responses” value (Donor 877, HLA-DRB1 typing 01:01/13:01) of the same sequence?
Answer: Its value is 1.

Question: And the frequency (frequency of responders among 13 donors)?
Answer: Its frequency is 77%.

Question: What about the responders (number of responding donors out of 13) of the same sequence?
Answer: Its responders is 10.

Question: What about the “Number of specific responses, total” value (total over 13 healthy donors) of the same sequence?
Answer: Its value is 18.
